Laboratory results as given in US20190328667A1, “DRUG-POLYMER PARTICLES WITH SUSTAINED RELEASE PROPERTIES” (University of Washington, priority 2016, published 2019).

What was measured:
[1] = cited from earlier work
[2] = Maximum lopinavir concentration in suspension after thermal treatment (LC-MS/MS); format: physicochemical; conditions: after thermal treatment (melt-quench), normalized to lopinavir content
Method: Lopinavir in suspension was measured in μg/mL.

Row | Compound | Log D [1] | Maximum drug concentration in suspension [2]
1 | Cc1cccc(C)c1OCC(=O)N[C@@H](Cc1ccccc1)[C@@H](O)C[C@H](Cc1ccccc1)NC(=O)[C@H](C(C)C)N1CCCNC1=O [Lopinavir, lopinavir] | 4.6 | 
2 | CC(C)c1nc(CN(C)C(=O)N[C@H](C(=O)N[C@@H](Cc2ccccc2)C[C@H](O)[C@H](Cc2ccccc2)NC(=O)OCc2cncs2)C(C)C)cs1 [Ritonavir, ritonavir] | 5.7 | 
3 | Nc1ccn([C@@H]2CS[C@H](CO)O2)c(=O)n1 [Lamivudine, lamivudine] | −1.1 | 
4 | Cc1cccc(C)c1OCC(=O)N[C@@H](Cc1ccccc1)[C@@H](O)C[C@H](Cc1ccccc1)NC(=O)[C@H](C(C)C)N1CCCNC1=O [Lopinavir (amorphous), lopinavir] |  | 322.00 µg/mL
